Reference: PubChem BioAssay AID330 (DTP/NCI, 2004)
Several values for one entry are separate records, joined by “and”; a condition that tells them apart may be missing. Equal entries are not always repeated. Toxic doses and inconclusive results are not listed.

Tested on: P388 leukemia ip, CD2F1 mice, survival T/C
Assay: NCI In Vivo Anticancer Drug Screen. Data for tumor model P388 Leukemia (intraperitoneal) in CD2F1 (CDF1) mice
Conditions: endpoint: median survival time, higher = longer survival
Procedure, shortened: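 Mice carrying the transplanted tumor received test compound or vehicle. Survival was recorded in each group, and the value is the treated-group measurement divided by that of the vehicle-treated control group.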

[1] = dose: 25.0 mg/kg/injection, schedule: Q01DX009 (ip), vehicle: saline
[2] = dose: 50.0 mg/kg/injection, schedule: Q01DX009 (ip), vehicle: saline
[3] = dose: 100.0 mg/kg/injection, schedule: Q01DX009 (ip), vehicle: saline
[4] = dose: 200.0 mg/kg/injection, schedule: Q01DX009 (ip), vehicle: saline
[5] = dose: 25.0 mg/kg/injection, schedule: Q01DX009 (ip), vehicle: saline with Tween-80
[6] = dose: 50.0 mg/kg/injection, schedule: Q01DX009 (ip), vehicle: saline with Tween-80
[7] = dose: 100.0 mg/kg/injection, schedule: Q01DX009 (ip), vehicle: saline with Tween-80
[8] = dose: 100.0 mg/kg/injection, schedule: Q04DX003 (ip), vehicle: saline with Tween-80
[9] = dose: 200.0 mg/kg/injection, schedule: Q04DX003 (ip), vehicle: saline with Tween-80
[10] = dose: 100.0 mg/kg/injection, schedule: Q04DX002 (ip), vehicle: saline with Tween-80
[11] = dose: 200.0 mg/kg/injection, schedule: Q04DX002 (ip), vehicle: saline with Tween-80
[12] = dose: 60.0 mg/kg/injection, schedule: Q01DX005 (ip), vehicle: saline
[13] = dose: 120.0 mg/kg/injection, schedule: Q01DX005 (ip), vehicle: saline
[14] = dose: 240.0 mg/kg/injection, schedule: Q01DX005 (ip), vehicle: saline
[15] = dose: 60.0 mg/kg/injection, schedule: Q01DX005 (ip), vehicle: saline with Tween-80
[16] = dose: 120.0 mg/kg/injection, schedule: Q01DX005 (ip), vehicle: saline with Tween-80
[17] = dose: 240.0 mg/kg/injection, schedule: Q01DX005 (ip), vehicle: saline with Tween-80
[18] = dose: 50.0 mg/kg/injection, schedule: Q01DX005 (ip), vehicle: Klucel (hydroxypropylcellulose) (HPC)
[19] = dose: 100.0 mg/kg/injection, schedule: Q01DX005 (ip), vehicle: Klucel (hydroxypropylcellulose) (HPC)
[20] = dose: 200.0 mg/kg/injection, schedule: Q01DX005 (ip), vehicle: Klucel (hydroxypropylcellulose) (HPC)
[21] = dose: 60.0 mg/kg/injection, schedule: Q01DX005 (ip), vehicle: Klucel (hydroxypropylcellulose) (HPC)

For CCOC(=O)CN(C=O)C(C)c1ccccc1 (stereo not given), the T/C [1] was 114 % of control, the T/C [2] was 99 % of control and the T/C [3] was 98 % of control. The T/C [4] was 99 % of control.
For Fc1cccc(CSc2ncnc3nc[nH]c23)c1, the T/C [5] was 104 % of control, the T/C (dose: 25.0 mg/kg/injection, schedule: Q04DX003 (ip), vehicle: saline with Tween-80) was 95 % of control and the T/C [6] was 95 % of control. The T/C (dose: 50.0 mg/kg/injection, schedule: Q04DX003 (ip), vehicle: saline with Tween-80) was 90 % of control, the T/C [7] was 104 % of control and the T/C [8] was 100 % of control and 104 % of control. The T/C [9] was 100 % of control.
In the case of O=C1C2(Cl)C3CCC4C5CCC3C1(Cl)C5(Cl)C42Cl (stereo not given), the T/C [10] is reported as 107 % of control and the T/C [11] is reported as 100 % of control.
COC(=O)[C@H]1C[C@@H](N)[C@H](O)[C@@H]1O was tested, and the T/C [12] was 102 % of control, the T/C [13] was 101 % of control and the T/C [14] was 100 % of control.
For COc1nc(N)c2cnn(C3CCCCO3)c2n1 (stereo not given), the T/C [10] was 99 % of control, the T/C [11] was 96 % of control and the T/C (dose: 400.0 mg/kg/injection, schedule: Q04DX002 (ip), vehicle: saline with Tween-80) was 101 % of control.
For c1nnc(NC(Nc2nncs2)C2CCCCC2)s1, the T/C (dose: 30.0 mg/kg/injection, schedule: Q01DX005 (ip), vehicle: saline with Tween-80) was 98 % of control, the T/C [15] was 95 % of control and the T/C [16] was 90 % of control and 92 % of control. For the same compound, the T/C [17] was 121 % of control.
CC(=O)c1ccc(O)c(O)c1O was tested, and the T/C [3] was 103 % of control and 104 % of control, the T/C [4] was 107 % of control and 120 % of control and the T/C (dose: 600.0 mg/kg/injection, schedule: Q01DX009 (ip), vehicle: saline) was 103 % of control and 104 % of control.
In the case of CC(C)NCC(O)COc1ccc(OCc2ccccc2)c(OCc2ccccc2)c1 (stereo not given), the T/C [6] is reported as 100 % of control.
With CCC1=CCC2C(=O)C3CC(CC)=CCC3C(=O)C2C1 (stereo not given) the T/C (dose: 12.5 mg/kg/injection, schedule: Q01DX005 (ip), vehicle: Klucel (hydroxypropylcellulose) (HPC)) was 97 % of control, the T/C (dose: 25.0 mg/kg/injection, schedule: Q01DX005 (ip), vehicle: Klucel (hydroxypropylcellulose) (HPC)) was 92 % of control and the T/C [18] was 87 % of control and 88 % of control.
With Oc1ccccc1C1NCCc2[nH]cnc21 (stereo not given) the T/C [18] was 104 % of control, the T/C [19] was 102 % of control and the T/C [20] was 104 % of control.
CC(C(=O)c1ccc(Cl)cc1)C1(O)C(=O)Nc2ccccc21 (stereo not given) was tested, and the T/C [15] was 108 % of control, the T/C [16] was 111 % of control and the T/C [17] was 94 % of control.
For CS(=O)(=O)Oc1cccn(S(C)(=O)=O)c1=O, the T/C (dose: 12.5 mg/kg/injection, schedule: Q01DX009 (ip), vehicle: saline) was 97 % of control, the T/C [1] was 92 % of control and the T/C [2] was 97 % of control. For the same compound, the T/C [3] was 97 % of control and the T/C [4] was 97 % of control.
COC1OC(CO)C(N(C)C(C)=O)C1O (stereo not given) was tested, and the T/C [12] was 120 % of control, the T/C [13] was 115 % of control and the T/C [14] was 106 % of control.
In the case of c1ccc2c(c1)CCc1cc(CN3CCOCC3)ccc1N2, the T/C [21] is reported as 111 % of control, the T/C (dose: 120.0 mg/kg/injection, schedule: Q01DX005 (ip), vehicle: Klucel (hydroxypropylcellulose) (HPC)) is reported as 108 % of control and the T/C (dose: 240.0 mg/kg/injection, schedule: Q01DX005 (ip), vehicle: Klucel (hydroxypropylcellulose) (HPC)) is reported as 105 % of control.
In the case of O=C(NC(Cc1c[nH]c2ccccc12)C(=O)NC(Cc1ccccc1)C(=O)O)OCc1ccccc1 (stereo not given), the T/C [18] is reported as 103 % of control and 93 % of control, the T/C [19] is reported as 106 % of control and the T/C [20] is reported as 89 % of control.
O=c1[nH]c2cc(Cl)ccc2nc1/C=C(O)/C=C/c1ccccc1 was tested, and the T/C [15] was 98 % of control and 89 % of control, the T/C [16] was 95 % of control and the T/C [17] was 89 % of control and 91 % of control.
For O=C(O)C(=O)c1ccc(-c2ccccc2)cc1, the T/C (dose: 50.0 mg/kg/injection, schedule: Q04DX003 (ip), vehicle: saline) was 104 % of control and the T/C (dose: 100.0 mg/kg/injection, schedule: Q04DX003 (ip), vehicle: saline) was 100 % of control.
With COc1ccc(N=Nc2nc(N)c(C(N)=O)[nH]2)cc1 the T/C (dose: 100.0 mg/kg/injection, schedule: Q04DX003 (ip), vehicle: Klucel (hydroxypropylcellulose) (HPC)) was 100 % of control, the T/C (dose: 200.0 mg/kg/injection, schedule: Q04DX003 (ip), vehicle: Klucel (hydroxypropylcellulose) (HPC)) was 103 % of control and the T/C (dose: 400.0 mg/kg/injection, schedule: Q04DX003 (ip), vehicle: Klucel (hydroxypropylcellulose) (HPC)) was 106 % of control.
O=C(OC1CCCc2ccccc21)c1ccc(N=Nc2ccccc2)cc1 (stereo not given) was tested, and the T/C [15] was 95 % of control and the T/C [16] was 88 % of control.
For O=C(N1CCN(C(=O)S(=O)(=O)c2ccccc2)CC1)S(=O)(=O)c1ccccc1, the T/C (dose: 50.0 mg/kg/injection, schedule: Q01DX009 (ip), vehicle: Klucel (hydroxypropylcellulose) (HPC)) was 92 % of control, the T/C (dose: 100.0 mg/kg/injection, schedule: Q01DX009 (ip), vehicle: Klucel (hydroxypropylcellulose) (HPC)) was 100 % of control and the T/C (dose: 200.0 mg/kg/injection, schedule: Q01DX009 (ip), vehicle: Klucel (hydroxypropylcellulose) (HPC)) was 100 % of control.
O=C1CN(CCN2CCOCC2)CC(=O)N2CCCCN12 was tested, and the T/C (dose: 50.0 mg/kg/injection, schedule: Q01DX005 (ip), vehicle: saline) was 99 % of control, the T/C (dose: 100.0 mg/kg/injection, schedule: Q01DX005 (ip), vehicle: saline) was 102 % of control and the T/C (dose: 200.0 mg/kg/injection, schedule: Q01DX005 (ip), vehicle: saline) was 107 % of control.
For COC(=O)C1=C(C)NC(=S)NC1c1ccco1 (stereo not given), the T/C [8] was 95 % of control, the T/C [9] was 95 % of control and the T/C (dose: 400.0 mg/kg/injection, schedule: Q04DX003 (ip), vehicle: saline with Tween-80) was 100 % of control.
With CNCc1nc2sc3c(c2c(=O)[nH]1)CCCC3 the T/C [6] was 97 % of control, the T/C [7] was 105 % of control and the T/C (dose: 200.0 mg/kg/injection, schedule: Q01DX009 (ip), vehicle: saline with Tween-80) was 102 % of control.
For COC(=O)CCC(=O)Nc1ccccc1C(F)(F)F, the T/C [15] was 102 % of control, the T/C [16] was 108 % of control and the T/C [17] was 107 % of control.
In the case of O=NNc1cnc(Br)cn1, the T/C (dose: 3.13 mg/kg/injection, schedule: Q01DX009 (ip), vehicle: water) is reported as 97 % of control, the T/C (dose: 6.25 mg/kg/injection, schedule: Q01DX009 (ip), vehicle: water) is reported as 101 % of control and the T/C (dose: 12.5 mg/kg/injection, schedule: Q01DX009 (ip), vehicle: water) is reported as 105 % of control and 108 % of control. For the same compound, the T/C (dose: 25.0 mg/kg/injection, schedule: Q01DX009 (ip), vehicle: water) was 108 % of control and 118 % of control and the T/C (dose: 100.0 mg/kg/injection, schedule: Q01DX009 (ip), vehicle: water) was 167 % of control.
O=C(NC(Cc1ccccc1)C(=O)O)OCc1ccccc1 (stereo not given) was tested, and the T/C [18] was 100 % of control, the T/C [19] was 92 % of control and the T/C (dose: 177.0 mg/kg/injection, schedule: Q01DX009 (ip), vehicle: saline with Tween-80) was 107 % of control. For the same compound, the T/C [20] was 102 % of control, the T/C (dose: 266.0 mg/kg/injection, schedule: Q01DX009 (ip), vehicle: saline with Tween-80) was 109 % of control and the T/C (dose: 400.0 mg/kg/injection, schedule: Q01DX009 (ip), vehicle: saline with Tween-80) was 116 % of control.
CC(=O)[C@H]1[C@H](O)C[C@H]2[C@@H]3CCC4=CC(=O)CC[C@]4(C)[C@@]3(F)[C@@H](O)C[C@@]21C was tested, and the T/C [3] was 120 % of control and the T/C [4] was 95 % of control.
For CC(=O)CC(=O)c1c(-c2ccccc2)n(C)c2ccccc12, the T/C (dose: 100.0 mg/kg/injection, schedule: Q01DX001 (ip), vehicle: Klucel (hydroxypropylcellulose) (HPC)) was 98 % of control, the T/C (dose: 200.0 mg/kg/injection, schedule: Q01DX001 (ip), vehicle: Klucel (hydroxypropylcellulose) (HPC)) was 101 % of control and the T/C (dose: 400.0 mg/kg/injection, schedule: Q01DX001 (ip), vehicle: Klucel (hydroxypropylcellulose) (HPC)) was 102 % of control.
With CC1C(=O)CCC2(C)C1CCC1C3CCC(O)C3(C)CCC12 (stereo not given) the T/C (dose: 12.5 mg/kg/injection, schedule: Q01DX009 (ip), vehicle: saline with Tween-80) was 95 % of control, the T/C [5] was 109 % of control and the T/C [6] was 95 % of control.
CNC(=S)NC(C)(C)C was tested, and the T/C (dose: 15.0 mg/kg/injection, schedule: Q01DX005 (ip), vehicle: Klucel (hydroxypropylcellulose) (HPC)) was 97 % of control, the T/C (dose: 30.0 mg/kg/injection, schedule: Q01DX005 (ip), vehicle: Klucel (hydroxypropylcellulose) (HPC)) was 97 % of control and the T/C [21] was 103 % of control and 98 % of control.
CCO/C=C1/N=C(c2cccc3ccccc23)OC1=O was tested, and the T/C [15] was 99 % of control, the T/C [16] was 99 % of control and the T/C [17] was 99 % of control.
